Like-named read-outs stand apart in the source and are kept apart here.
Experiments:
Assay type in all cases: in vivo
[1] = test system: Triticum aestivum (TRZAS); details: crop plant compatibility, effect vs untreated controls
Method in brief: (§1)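 Visual rating (% effect vs. untreated plants; 100% = plant death) made about 3 weeks after treatment. Plants had been sprayed at one-leaf stage, 2–3 weeks post-sowing, with aqueous WP/EC preparations containing 0.5% additive, 600 l/ha water volume; a, b, c mark dose levels.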

Zea mays (ZEAMX) [2] = details: for Post-emergence action against ZEAMX in % (crop plant compatibility): 20 g/ha, effect in comparison to untreated controls; for Post-emergence action against ZEAMX in %: crop plant compatibility, 80 g/ha, effect vs untreated controls
Method in brief: as §1

Oryza sativa (ORYSA) [3] = details: crop plant compatibility
Method in brief: as §1

[4] = test system: Digitaria sanguinalis (DIGSA); test: Pre-emergence herbicidal action against DIGSA; details: dosage 320 g/ha
Method in brief: (§2)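 Application rates ran to 320 g/ha or lower, with several dosages tested on the same weeds. The compound, as wettable powder or emulsion concentrate, is sprayed pre-emergence onto soil over sown seeds; greenhouse growth follows, and effect is rated visually after roughly 3 weeks.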

[5] = test system: Alopecurus myosuroides (ALOMY); test: Pre-emergence herbicidal action against ALOMY; details: 320 g/ha; scored visually after about 3 weeks; 100% = plants have died
Method in brief: as §2

Glycine max (GLXMA) = test: Post-emergence crop plant compatibility, GLXMA; details: post-emergence, effect in comparison to untreated controls
Experimental: Seeds of monocotyledonous and dicotyledonous weeds and crop plants are placed in sandy loam in plastic or organic planting pots, covered with soil and cultivated in a greenhouse under controlled growth conditions. 2 to 3 weeks after sowing, the test plants are treated at the one-leaf stage. The compounds of the invention, formulated in the form of wettable powders (WP) or as emulsion concentrates (EC), are then sprayed onto the green parts of the plants as aqueous suspension or emulsion with addition of 0.5% additive at a water application rate of 600 l/ha (converted). After the test plants have been kept in the greenhouse under optimum growth conditions for about 3 weeks, the activity of the preparations is rated visually in comparison to untreated controls. For example, 100% activity=the plants have died, 0% activity=like control plants.
The observed effects on selected crop plants are reported here in comparison to the untreated controls (values in %). The appendices “a”, “b” and “c” give differentiation by dosage used with otherwise the same crop plants tested.

Setaria viridis (SETVI) = test: Post-emergence herbicidal action against SETVI; details: dosage 80 g/ha
Method in brief: (§3)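 Rates were 320 g/ha or below, applied as aqueous WP/EC spray with 0.5% additive (600 l/ha) onto one-leaf-stage plants. About 3 weeks later in the greenhouse, damage was scored visually against untreated plants on a 0–100% scale, where 100% means plants died.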

[6] = test system: Alopecurus myosuroides (ALOMY); test: Post-emergence herbicidal action against ALOMY; details: 80 g/ha, visual rating about 3 weeks after treatment vs untreated controls (100% = plants have died, 0% = like control plants)
Method in brief: as §3

Viola tricolor (VIOTR) [7] = test: Pre-emergence herbicidal action against VIOTR
Method in brief: as §2

[8] = test system: Triticum aestivum (TRZAS); details: pre-emergence, crop plant compatibility, in comparison to untreated controls
Method in brief: (§4)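 Crop injury rated visually in percent against untreated plants roughly 3 weeks after treatment (0% no effect, 100% plants dead). Compounds, as WP or EC with 0.5% additive in 600 l/ha water, were applied to the covering soil right after sowing; greenhouse growth. Suffixes a, b, c denote different dosages.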

Zea mays (ZEAMX) [9] = details: pre-emergence, crop plant compatibility, in comparison to untreated controls
Method in brief: as §4

Oryza sativa (ORYSA) [10] = details: pre-emergence, crop plant compatibility, in comparison to untreated controls
Method in brief: as §4

[11] = test system: Polygonum convolvulus (POLCO); test: Post-emergence herbicidal action against POLCO; details: dosage 320 g/ha
Method in brief: as §3

[12] = test system: Verconica persica (VERPE); test: Post-emergence herbicidal action against VERPE; details: 320 g/ha, VERPE
Method in brief: as §3

[13] = test system: Abutilon theophrasti (ABUTH); test: Post-emergence herbicidal action against ABUTH; details: 320 g/ha, visual rating about 3 weeks after treatment vs untreated controls (100% = plants have died, 0% = like control plants)
Method in brief: as §3

Viola tricolor (VIOTR) [14] = test: Post-emergence herbicidal action against VIOTR; details: 320 g/ha
Method in brief: as §3

[15] = test system: Pharbitis purpurea (PHBPU); test: Post-emergence herbicidal action against PHBPU; details: dosage 320 g/ha
Method in brief: as §3

Brassica napus (BRSNW) = details: 80 g/ha, crop plant compatibility, in comparison to untreated controls
Method in brief: as §4

[16] = 20 g/ha, effect vs untreated controls
[17] = 80 g/ha, effect in comparison to untreated controls

COC(=O)CN(C)C(=O)COc1nn(-c2ccccn2)c(-c2ccc(F)nc2)c1Br [Example I-114]
Post-emergence action against TRZAS in % ([1]; 20 g/ha): 0%
Post-emergence action against TRZAS in % ([1]; 80 g/ha): 0%
Post-emergence action against ZEAMX in % (crop plant compatibility) (Zea mays (ZEAMX) [2]): 0%
Post-emergence action against ZEAMX in % (Zea mays (ZEAMX) [2]): 0%
Post-emergence action against ORYSA in % (Oryza sativa (ORYSA) [3]; [16]): 0%
Post-emergence action against ORYSA in % (Oryza sativa (ORYSA) [3]; [17]): 0%
Pre-emergence action against DIGSA in % [4]: 90%
Pre-emergence action against ALOMY [5]: 100%
Post-emergence action against GLXMA in % (Glycine max (GLXMA); 20 g/ha): 0%
Post-emergence action against GLXMA in % (Glycine max (GLXMA); 80 g/ha): 0%
Post-emergence action against SETVI in % (Setaria viridis (SETVI)): 80%
Post-emergence action against ALOMY in % [6]: 90%
Pre-emergence action against VIOTR in % (Viola tricolor (VIOTR) [7]; 320 g/ha, Viola tricolor): 90%
Pre-emergence action against VIOTR in % (Viola tricolor (VIOTR) [7]; dosage 80 g/ha): 80%
Pre-emergence action against TRZAS in % ([8]; 80 g/ha): 20%
Pre-emergence action against ZEAMX in % (Zea mays (ZEAMX) [9]; 80 g/ha): 10%
Pre-emergence action against ZEAMX in % (Zea mays (ZEAMX) [9]; 320 g/ha): 20%
Pre-emergence action against ORYSA in % (Oryza sativa (ORYSA) [10]; 80 g/ha): 0%
Pre-emergence action against ORYSA in % (Oryza sativa (ORYSA) [10]; 320 g/ha): 0%

COC(=O)CCOC(=O)COc1nn(-c2ccccn2)c(-c2ccc(F)nc2)c1C1CC1(F)F (stereo not shown) [Example I-261]
Post-emergence action against TRZAS in % ([1]; 20 g/ha): 0%
Post-emergence action against TRZAS in % ([1]; 80 g/ha): 0%
Post-emergence action against ZEAMX in % (crop plant compatibility) (Zea mays (ZEAMX) [2]): 0%
Post-emergence action against ZEAMX in % (Zea mays (ZEAMX) [2]): 0%
Post-emergence action against POLCO in % [11]: 80%
Post-emergence action against VERPE in % [12]: 80%
Post-emergence action against ABUTH in % [13]: 80%
Post-emergence action against VIOTR in % (Viola tricolor (VIOTR) [14]): 80%
Post-emergence action against GLXMA in % (Glycine max (GLXMA); 20 g/ha): 0%
Post-emergence action against PHBPU in % [15]: 80%

COC(=O)COc1nn(-c2ncccc2F)c(-c2cncc(F)c2)c1Br [Example I-49]
Post-emergence action against TRZAS in % ([1]; 20 g/ha): 0%
Post-emergence action against TRZAS in % ([1]; 80 g/ha): 10%
Post-emergence action against ZEAMX in % (crop plant compatibility) (Zea mays (ZEAMX) [2]): 0%
Post-emergence action against ZEAMX in % (Zea mays (ZEAMX) [2]): 10%
Post-emergence action against ORYSA in % (Oryza sativa (ORYSA) [3]; [16]): 0%
Post-emergence action against ORYSA in % (Oryza sativa (ORYSA) [3]; [17]): 10%
Post-emergence action against GLXMA in % (Glycine max (GLXMA); 20 g/ha): 10%
Pre-emergence action against TRZAS in % ([8]; 80 g/ha): 0%
Pre-emergence action against TRZAS in % ([8]; 320 g/ha): 0%
Pre-emergence action against ZEAMX in % (Zea mays (ZEAMX) [9]; 80 g/ha): 0%
Pre-emergence action against ZEAMX in % (Zea mays (ZEAMX) [9]; 320 g/ha): 0%
Pre-emergence action against ORYSA in % (Oryza sativa (ORYSA) [10]; 80 g/ha): 10%
Pre-emergence action against ORYSA in % (Oryza sativa (ORYSA) [10]; 320 g/ha): 20%
Pre-emergence action against BRSNW in % (Brassica napus (BRSNW)): 10%

Source: patent US20240041042A1, “1-(PYRIDYL)-5-AZINYLPYRAZOLE DERIVATIVES, AND THEIR USE FOR CONTROL OF UNDESIRED PLANT GROWTH” (Bayer Aktiengesellschaft, priority 2020, published 2024)
